For this test, the target named is T1, Human macrophage mannose receptor 1 (MRC1) (Homo sapiens, UniProt P22897).
T1 sequence (P22897 19-1456): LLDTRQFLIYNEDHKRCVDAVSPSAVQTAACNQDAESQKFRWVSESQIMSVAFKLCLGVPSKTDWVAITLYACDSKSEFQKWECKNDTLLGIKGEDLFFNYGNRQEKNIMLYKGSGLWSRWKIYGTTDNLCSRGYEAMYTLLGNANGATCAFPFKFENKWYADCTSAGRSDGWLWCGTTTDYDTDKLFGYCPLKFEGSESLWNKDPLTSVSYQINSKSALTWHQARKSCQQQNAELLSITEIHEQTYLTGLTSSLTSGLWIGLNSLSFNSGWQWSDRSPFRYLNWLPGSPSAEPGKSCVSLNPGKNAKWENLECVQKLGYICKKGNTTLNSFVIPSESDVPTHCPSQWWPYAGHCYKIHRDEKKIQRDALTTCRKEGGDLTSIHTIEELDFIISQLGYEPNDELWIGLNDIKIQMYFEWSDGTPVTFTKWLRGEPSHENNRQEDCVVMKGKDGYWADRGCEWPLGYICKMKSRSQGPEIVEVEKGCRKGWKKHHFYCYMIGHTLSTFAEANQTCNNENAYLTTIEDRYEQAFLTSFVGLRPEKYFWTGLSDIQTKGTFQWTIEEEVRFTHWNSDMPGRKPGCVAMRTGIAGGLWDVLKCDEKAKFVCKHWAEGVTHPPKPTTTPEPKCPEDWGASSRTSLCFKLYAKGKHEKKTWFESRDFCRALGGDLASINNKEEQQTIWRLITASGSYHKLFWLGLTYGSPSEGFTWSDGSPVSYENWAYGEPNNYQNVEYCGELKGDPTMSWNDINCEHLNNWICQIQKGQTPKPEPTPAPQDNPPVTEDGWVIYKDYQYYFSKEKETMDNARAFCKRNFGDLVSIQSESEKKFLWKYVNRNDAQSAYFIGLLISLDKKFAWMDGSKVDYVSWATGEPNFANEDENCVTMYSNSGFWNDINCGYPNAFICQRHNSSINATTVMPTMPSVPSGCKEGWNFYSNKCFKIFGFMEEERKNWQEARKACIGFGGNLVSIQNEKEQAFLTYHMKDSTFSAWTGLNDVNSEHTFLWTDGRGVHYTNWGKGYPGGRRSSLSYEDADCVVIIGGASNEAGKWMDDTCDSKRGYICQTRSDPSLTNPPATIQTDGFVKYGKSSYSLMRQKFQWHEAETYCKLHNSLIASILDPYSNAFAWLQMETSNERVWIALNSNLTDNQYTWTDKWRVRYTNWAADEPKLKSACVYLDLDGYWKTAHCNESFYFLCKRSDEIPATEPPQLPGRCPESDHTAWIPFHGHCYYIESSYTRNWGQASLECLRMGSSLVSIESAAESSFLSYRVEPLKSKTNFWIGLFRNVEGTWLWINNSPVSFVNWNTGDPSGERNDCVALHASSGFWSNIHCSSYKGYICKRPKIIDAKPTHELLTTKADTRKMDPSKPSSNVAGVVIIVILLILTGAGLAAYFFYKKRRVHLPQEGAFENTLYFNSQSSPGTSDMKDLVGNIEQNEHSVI
The test is described as follows: MRC1 competition binding assay (Eu-mannosylated-BSA), Method F: 96-well, manual liquid dispense. The conditions noted are these: read-out: MRC1 Binding IP (inflection point, corresponds to IC50). As for the experimental part:
The competition binding assay for MRC1 utilized a ligand, mannosylated-BSA labeled with the DELFIA Eu-N1-ITC reagent, as reported in the literature. […] The antibody was incubated in the plate for 1 hr at room temperature with shaking. The plate was washed with wash buffer 3-5 times followed by addition of MRC1 (2 ng/μl final concentration) in 25 μl PBS containing 1% stabilizer BSA. The plate was incubated at room temperature with gentle shaking for 1 hr. The plate was washed three times with wash buffer. […]
Their in vitro biological activities towards insulin receptor (IR) were measured by either ligand competition assays or functional phosphorylation assays, as described above, labeled as following: Method A: IR phosphorylation assay based on 96-well with manual liquid dispense; Method B: IR phosphorylation assay based on 96-well with automated liquid dispense; Method C: IR phosphorylation assay based on 384-well with automated liquid dispense; Method D: IR binding assay method D; Method E: IR binding assay method E; Method F: MRC1 assay was performed in a 96-well plate with a manual liquid dispense; Method G: MRC1 assay was performed in a 96-well plate with an automated liquid dispense; Method H: MRC1 assay was performed in a 384-well plate with an automated dispense.

With `CC[C@H](C)[C@H](NC(=O)CN)C(=O)N[C@H](C(=O)N[C@@H](CCC(=O)O)C(=O)N[C@@H](CCC(N)=O)C(=O)N[C@H]1CSSC[C@@H]2NC(=O)[C@H]([C@@H](C)CC)NC(=O)[C@H](CO)NC(=O)[C@H]([C@@H](C)O)NC(=O)[C@H](CSSC[C@H](NC(=O)[C@H](CC(C)C)NC(=O)[C@H](Cc3c[nH]cn3)NC(=O)[C@H](CCC(N)=O)NC(=O)[C@H](CC(N)=O)NC(=O)[C@@H](NC(=O)[C@@H](N)Cc3ccccc3)C(C)C)C(=O)NCC(=O)N[C@@H](CO)C(=O)N[C@@H](Cc3c[nH]cn3)C(=O)N[C@@H](CC(C)C)C(=O)N[C@@H](C(C)C)C(=O)N[C@@H](CCC(=O)O)C(=O)N[C@@H](C)C(=O)N[C@@H](CC(C)C)C(=O)N[C@@H](Cc3ccc(O)cc3)C(=O)N[C@@H](CC(C)C)C(=O)N[C@@H](C(C)C)C(=O)N[C@H](C(=O)NCC(=O)N[C@@H](CCC(=O)O)C(=O)N[C@@H](CCCNC(=N)N)C(=O)NCC(=O)N[C@@H](Cc3ccccc3)C(=O)N[C@@H](Cc3ccccc3)C(=O)N[C@@H](Cc3ccc(O)cc3)C(=O)N[C@H](C(=O)N3CCC[C@H]3C(=O)N[C@@H](CCCCNC(=O)CCCCC(=O)N(CC(=O)NCCO[C@@H]3O[C@@H](C)[C@@H](O)[C@@H](O)[C@@H]3O)CC(=O)NCCO[C@@H]3O[C@@H](C)[C@@H](O)[C@@H](O)[C@@H]3O)C(=O)N[C@H](C(=O)O)[C@@H](C)O)[C@@H](C)O)CSSC[C@@H](C(=O)N[C@@H](CC(N)=O)C(=O)O)NC(=O)[C@H](Cc3ccc(O)cc3)NC(=O)[C@H](CC(N)=O)NC(=O)[C@H](CCC(=O)O)NC(=O)[C@H](CC(C)C)NC(=O)[C@H](CCC(N)=O)NC(=O)[C@H](Cc3ccc(O)cc3)NC(=O)[C@H](CC(C)C)NC(=O)[C@H](CO)NC2=O)NC1=O)C(C)C` [IOC-12], the concentration for half-maximal inhibition (IC50) was found to be 92.5 nM.

For `CC[C@H](C)[C@H](NC(=O)CNC(=O)CCCCC(=O)N(CC(=O)NCCO[C@@H]1O[C@@H](C)[C@@H](O)[C@@H](O)[C@@H]1O)CC(=O)NCCO[C@@H]1O[C@@H](C)[C@@H](O)[C@@H](O)[C@@H]1O)C(=O)N[C@H](C(=O)N[C@@H](CCC(=O)O)C(=O)N[C@@H](CCC(N)=O)C(=O)N[C@H]1CSSC[C@@H]2NC(=O)[C@H]([C@@H](C)CC)NC(=O)[C@H](CO)NC(=O)[C@H]([C@@H](C)O)NC(=O)[C@H](CSSC[C@H](NC(=O)[C@H](CC(C)C)NC(=O)[C@H](Cc3c[nH]cn3)NC(=O)[C@H](CCC(N)=O)NC(=O)[C@H](CC(N)=O)NC(=O)[C@@H](NC(=O)[C@@H](N)Cc3ccccc3)C(C)C)C(=O)NCC(=O)N[C@@H](CO)C(=O)N[C@@H](Cc3c[nH]cn3)C(=O)N[C@@H](CC(C)C)C(=O)N[C@@H](C(C)C)C(=O)N[C@@H](CCC(=O)O)C(=O)N[C@@H](C)C(=O)N[C@@H](CC(C)C)C(=O)N[C@@H](Cc3ccc(O)cc3)C(=O)N[C@@H](CC(C)C)C(=O)N[C@@H](C(C)C)C(=O)N[C@H](C(=O)NCC(=O)N[C@@H](CCC(=O)O)C(=O)N[C@@H](CCCNC(=N)N)C(=O)NCC(=O)N[C@@H](Cc3ccccc3)C(=O)N[C@@H](Cc3ccccc3)C(=O)N[C@@H](Cc3ccc(O)cc3)C(=O)N[C@H](C(=O)N3CCC[C@H]3C(=O)N[C@@H](CCCCN)C(=O)N[C@H](C(=O)O)[C@@H](C)O)[C@@H](C)O)CSSC[C@@H](C(=O)N[C@@H](CC(N)=O)C(=O)O)NC(=O)[C@H](Cc3ccc(O)cc3)NC(=O)[C@H](CC(N)=O)NC(=O)[C@H](CCC(=O)O)NC(=O)[C@H](CC(C)C)NC(=O)[C@H](CCC(N)=O)NC(=O)[C@H](Cc3ccc(O)cc3)NC(=O)[C@H](CC(C)C)NC(=O)[C@H](CO)NC2=O)NC1=O)C(C)C` [IOC-13], the half-inhibitory concentration (IC50) stood at 107 nM.

The IC50 is the midpoint of a concentration-inhibition curve.

The values above are taken from patent US9884125B2, “Glucose-responsive insulin conjugates” (Merck Sharp & Dohme Corp., priority 2013, dated 2018).
